Columns and labels:
pS6 kinase activity = assay: Immunoblot of pS6K, pS6 and p4E-BP1 levels in SH-SY5Y cells; assay type: cell-based; settings: 0.5 or 1 μM, 3 h
Excerpt: FIGS. 14A-14G show the characterization of compound 121. […] Bars represent means±s.e.m. ***P<0.0005, two-way ANOVA followed by Tukey's post hoc test (n=4). […] Bars represent mean±s.e.m. ***P<0.0005, two-way ANOVA followed by Tukey's post hoc test (n=4). […] Bars represent means±s.e.m. **P<0.005, ***P<0.0005, one-way ANOVA followed by Tukey's post hoc test (n=3). […] Bar represent mean±s.e.m. ***P<0.0005, one-way ANOVA followed by Tukey's post hoc test (n=3). […] Quantification of inhibition of PARP-1 activity by compound 56, compound 121 and ABT-888 is shown. Graphs represent mean±s.e.m. ***P<0.0005, two-way ANOVA followed by Tukey's post hoc test (n=3). FIGS. 14F and 14G show Alamar blue cell viability assay from SH-SY5Y cells pre-incubated with either compound 56 or 121 in response to (14F) 0.5 μM staurosporine (STS) or (14G) from HT 22 cells incubated with 1 ng/ml of TNF-α with 50 μM z-VAD. Bars represent mean±s.e.m. ***P<0.0005, two-way ANOVA followed by Tukey's post hoc test (n=5).
Tissue lysate preparation and western blot analysis. […] Protein concentrations were determined using the BCA assay (Pierce) and samples were separated using SDS polyacrylamide gels and transferred onto nitrocellulose membranes. […]

DNA-MIF/PAAN complex = target: T1, DNA-MIF/PAAN complex (Homo sapiens, UniProt P14174); assay: Electrophoretic mobility shift assay (EMSA) of PAAN/MIF with biotin-labeled DNA substrate (PS30); assay type: binding; settings: 1-100 μM
T1 construct: GST (N, cleaved yes); made in house; host or cells: Escherichia coli
Experimental: Electrophoretic mobility shift assay (EMSA). EMSA assays were performed using the Light-Shift Chemiluminescent EMSA kit (Thermo Scientific) following the manufactures instruction. Recombinant PAAN/MIF protein (2 μM) was incubated with 1-100 μM PAANIB-1 as indicated in the binding buffer containing 10 mM MgCl2 for 10 min and further incubated with biotin-labeled DNA substrates (10 nM) for 30 min on ice. The mixture were separated on 6% retardation polyacrylamide and transferred to a Nylon membrane. Immunoblot analysis was performed to detect the biotin-labeled DNA using the Chemiluminescent Nucleic Acid Detection Module (Thermo Scientific).

PAAN/MIF = assay: In vitro PAAN/MIF nuclease assay (PS30 or RF substrate, PAGE gel, noncleaved substrate DNA); assay type: biochemical, human
Experimental: Nuclease assay. Purified PAAN/MIF protein (4 μM) was incubated with compounds (10 μM) in the nuclease buffer [10 mM Tris-C1 (pH 7.0) and 10 mM MgCl2] for 20 m on ice. Then samples were added with 1 μM of PAAN/MIF substrate (PS30 or RF) and incubated for 1 h at 37° C. The reaction was terminated with loading buffer containing 10 mM EDTA and separated on 15% TBE-urea polyacrylamide (PAGE) gel or 20% TBE PAGE gel.
(§1) Purification of PAAN/MIF recombinant proteins. Human PAAN/MIF (NM_002415) cDNA and its variants were subcloned into pGEX-6β-1 vector (GE Healthcare) and mutants were generated using a QuikChange site-directed mutagenesis kit (Stratagene). The sequences were confirmed by automated DNA sequencing. The protein was expressed and purified from Escherichia coli by glutathione sepharose (GE Healthcare). The GST tag was subsequently proteolytically removed. GST protein was used as a negative control in the nuclease assay and PAAN/MIF proteins purified by FPLC using Superdex 200 10/300GL column (GE Healthcare, Life Sciences) were also used in the nuclease assays.

calcineurin = assay: Calcineurin cellular activity assay in SH-SY5Y cells; assay type: cell-based; settings: 1 μM, 6 h
Experimental: Calcineurin activity assay. Calcineurin activity was measured using a calcineurin cellular activity assay (Enzo Life Sciences) according to manufacturer's protocols. See Sangadala et al. (2019) Int. J. Mol. Sci. 20:1900. SH-SY5Y cells treated with FK506 or compound 121 were placed in a desalting column to remove excess phosphates and nucleotides. Total phosphate activity was determined in the samples by incubating with a calcineurin-specific substrate supplied in the manufacturer and measured by monitoring absorbance at 620 nm. Calcineurin activity was calculated as the difference between total phosphatase activity minus the phosphatase activity in the presence of 10 mM EGTA that blocks calcineurin activity.

PAAN/MIF WT or variants = assay: Biolayer interferometry (ForteBio Octet) binding assay; set-up: species or system human
Excerpt: as §1
Biolayer interferometry assay. The dose-dependent binding of compound 121 for PAAN/MIF WT or PAAN/MIF variants were determined by a biolayer interferometry assay using Octet RED96 (ForteBio). See Guo et al. (2018) Nat. Chem. 11:254-63. All the proteins used in this assay were tagged with GST. Anti-GST biosensor tips (ForteBio) were used to immobilize the GST proteins after prewetting with 1X kinetic buffer (ForteBio). The equilibrated GST biosensors were loaded with PAAN/MIF WT or variants (25 μg/ml). Background binding controls were measured by sensors that were incubated in buffer without proteins. All assays were performed by a standard protocol in 96-well black plates (Greiner Bio) with a total volume of 200 μl per well. All the data were analyzed by Octet data analysis software.

T1 sequence (P14174 whole entry, one chain of several): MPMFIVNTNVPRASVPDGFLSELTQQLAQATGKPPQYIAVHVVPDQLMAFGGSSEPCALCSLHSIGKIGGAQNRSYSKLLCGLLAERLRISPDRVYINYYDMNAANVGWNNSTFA

COc1ccc(CC[C@H]2OC(=O)[C@@H]3CCCCN3C(=O)C(=O)C(C)(C)COC(=O)C=CCCN(C)C(=O)[C@@H]3CCCN3C(=O)[C@H](COC(C)(C)C)N(C)C(=O)C(c3ccccc3)NC(=O)[C@H](C)N(C)C(=O)COc3cc(F)cc2c3)cc1OC (mixture of isomers) [compound 121]
rapamycin sensitive pS6 kinase activity (pS6 kinase activity): failed to inhibit
interaction of PAAN/MIF with its substrate (DNA-MIF/PAAN complex): does not disrupt
nuclease activity of MIF 66-67A or MIF 97-99A mutants (PAAN/MIF; mutants K66A and I67A, N97A, Y98A and Y99A): remained sensitive to inhibition
nuclease activity of PAAN/MIF 60-63A and PAAN/MIF N72A mutants (PAAN/MIF; mutants S60A, L61A, H62A and S63A (MIF 60-63A), N72A): became resistant
FK506 sensitive calcineurin activity (calcineurin): failed to inhibit
direct binding of PAAN/MIF WT and Y99A mutant (PAAN/MIF WT or variants): exhibited binding
direct binding of mutants L61A, N72A and 60-63A (PAAN/MIF WT or variants): remarkably decreased

— US20220372014A1, “NEUROPROTECTIVE COMPOUNDS AND METHODS OF USE THEREOF” (The Johns Hopkins University, priority 2019, published 2022)
